US20100056555A1, “METHOD OF TREATING RAS ASSOCIATED CANCER” (ENZON PHARMACEUTICALS, INC., priority 2008, published 2010)
Where “and” joins values, the source holds several entries; their conditions need not be identical. Identical values can stand only once. Like-named read-outs stand apart in the source and are kept apart here.

Key:
[1] = test system: Calu-6 Human Lung Carcinoma cells; assay: Calu 6 Kras mutant xenografts that failed C225 (Erbitux) therapy; settings: 40 mg/kg q2dx5 after C-225 challenge, Calu-6 xenograft mice
[2] = test system: MiaPaCA-2 pancreatic cells; assay: Kras mutant pancreatic cancer xenograft model (MiaPaCa-2); type: in vivo, human; settings: MiaPaCa-2 xenograft mice
[3] = test system: Calu-6 Human Lung Carcinoma cells; settings: Calu-6 xenograft mice; for % T/C / % TGI: day 20; for Observed cures: day 57
[4] = test system: SW480 Human colorectal carcinoma cells; assay: SW480 human colorectal xenografts, Erbitux failed tumors; settings: 40 mg/kg q2dx7 after C-225 challenge; SW480 xenograft mice; Day 22
[5] = test system: SW480 Human colorectal carcinoma cells; assay: Kras mutant xenograft model of human colorectal cancer (SW480), single agent therapy; settings: SW480 xenograft mice, Day 22

In the case of `CCc1c2c(nc3ccc(OC(=O)N4CCC(N5CCCCC5)CC4)cc13)-c1cc3c(c(=O)n1C2)COC(=O)[C@]3(O)CC` [CPT-11, Irinotecan], the “% TGI” value ([1]; day 20) is reported as 84%, the Observed cures ([1]; day 57) is reported as 0/8 and the TGI ([2]; CPT-11 at corresponding dose level as compound 9 (10 mg/kg, q2d×5)) is reported as 20%. For the same compound, the TGI ([2]; multiple-dose at MTD of CPT-11 (40 mg/kg q2d×5)) was 47%, the “effect on tumor growth” value ([2]; single dose at the MTD (80 mg/kg qd×1)) was “no effect on tumor growth” and the “% T/C” value ([3]; 40 mg/kg q2dx5) was 5%. For the same compound, the “% TGI” value ([3]; 40 mg/kg q2dx5) was 95%, the Observed cures ([3]; 40 mg/kg q2dx5) was 0/8 and the “day by which animals relapsed” value ([3]; 40 mg/kg q2d×5) was 40 to 45 days. For the same compound, the “% T/C” value ([3]; 80 mg/kg qdx1) was 48%, the “% TGI” value ([3]; 80 mg/kg qdx1) was 52% and the Observed cures ([3]; 80 mg/kg qdx1) was 0/8. For the same compound, the “day by which all animals had to be sacrificed due to excessive tumor burden” value ([3]; 80 mg/kg qd×1) was 22 to 24 days, the “% TGI” value [4] was 65.38% and the “Percent Change in TV” value [4] was 219.31%. For the same compound, the “% TGI” value ([5]; 40 mg/kg q2dx5) was 65% and 64.76%, the “Percent Change in TV” value ([5]; 40 mg/kg q2dx5) was 163.62% and the “% T/C” value ([5]; 80 mg/kg qdx1) was 66.60%. The “% TGI” value ([5]; 80 mg/kg qdx1) was 47% and 46.53% and the “Percent Change in TV” value ([5]; 80 mg/kg qdx1) was 397.75%.
